Patent publication US20240293367A1, “METHODS OF TREATING DISORDERS WITH A […]” (Cybin IRL Limited, priority 2023, published 2024)
Where a name gives a salt, the structure may show the parent alone. Read-outs that look alike come from different tables or passages of the source.

Key:
MDD patients = settings: cited from earlier work; for placebo subtracted difference in (LSM) change from baseline MADRS total score: pivotal clinical studies, package inserts; for placebo subtracted difference in LSM change from baseline on MADRS score: adjunctive to antidepressants
[1] = Clinical PD of psilocin after psilocybin (VAS-Any drug effect, MEQ30, 5D-ASC versus psilocin Cmax); type: in vivo, human
Text: To evaluate potential psychedelic effects at various doses of psilocin-d10, data were summarized/modeled from published literature for psilocin after psilocybin administration.
First, the VAS—Any drug effect score was modeled based on data from Holze et al. 2022 using a linear effect relationship to determine psilocin plasma concentrations in which a VAS—Any drug effect score of 20, 40, 60, and 80 mm was reached. This relationship is presented graphically in FIG. 4, based on the extraction of mean PK and PD data from the figures in Holze et al. 2022. Here, a linear concentration-effect relationship was identified with no evidence of hysteresis. As is evident from this modeled linear concentration-effect relationship according to Holze et al. 2022 (y=0.17+3.9x), a psilocin plasma concentration of about 15.34 ng/ml is the predicted amount required to achieve VAS-Any drug effect scores above 60 mm, a psilocin plasma concentration of about 17.9 ng/ml is the predicted amount required to achieve VAS-Any drug effect scores above 70 mm, and a psilocin plasma concentration of about 20.47 ng/ml is the predicted amount required to achieve a VAS-Any drug effect score of 80 mm.
This modeled relationship between psilocin plasma concentration and VAS-Any drug effect score is also in agreement with reported literature studies relating plasma psilocin concentrations (μg/L) to neocortical serotonin 5-HT2A receptor occupancy % and subjective intensity of the psychedelic experience (see Madsen MK, Fisher PM, Burmester D, et al (2019). Psychedelic effects of psilocybin correlate with serotonin 2A receptor occupancy and plasma psilocin levels. Neuropsychopharmacology, 44:1328-34), albeit the Madsen et al. study uses a VAS scoring system related specifically to psychedelic effects. The psilocin concentrations needed to reach the plateau in receptor occupancy and the required VAS scores (psychedelic effects) can be seen graphically in FIG. 5 and FIGS. 6A-6B, which are reproduced from Madsen et al. 2019 (FIGS. 3 and 4, respectively, in Madsen et al. 2019). […]

[2] = 28-day (4-week GLP) toxicology study in dogs, toxicokinetic exposure; settings: dog, in vivo, 0.5 mg/kg; internal 4-week GLP toxicology study; read-out: Dog Cmax at 0.5 mg/kg
Text: The exposure limits will be applied on mean values within a cohort.

[3] = psilocin after psilocybin, Studerus et al. 2011; cited from earlier work
[4] = female, rat, in vivo, 40 mg/kg
[5] = linear model of Holze et al. 2022 data

Cc1ccc(Sc2ccccc2N2CCNCC2)c(C)c1 [vortioxetine]
difference in mean change from baseline of MADRS scores between placebo and drug (MDD patients; 20 mg, meta-analysis of 11 placebo-controlled trials): 4.57
placebo subtracted difference in (LSM) change from baseline MADRS total score (MDD patients): −2.8 to −5.9

CN(C)C(=O)N[C@H]1CC[C@H](CCN2CCN(c3cccc(Cl)c3Cl)CC2)CC1 [cariprazine]
placebo subtracted difference in LSM change from baseline on MADRS score (MDD patients; 1.5 mg/day fixed dose, 95% CI: −4.2, −0.9): −2.5
placebo subtracted difference in LSM change from baseline on MADRS score (MDD patients; flexible doses of 2-4.5 mg/day, 95% CI: −3.7, −0.6): −2.2
placebo subtracted difference in (LSM) change from baseline MADRS total score (MDD patients): −2.2 to −2.5

CN(C)CCc1c[nH]c2cccc(O)c12 [psilocin, 4-hydroxy-N,N-dimethyltryptamine]
psilocin plasma concentration predicted for VAS-Any drug effect scores above 70 mm ([1]; linear concentration-effect model): about 17.9 ng/ml
psilocin Cmax / plasma concentration for VAS - Any drug effect: 20 [1, 5]: 5.08 ng/mL
psilocin Cmax / plasma concentration for VAS - Any drug effect: 40 [1, 5]: 10.2 ng/mL
Cmax [2]: 51.7 ng/mL
psilocin Cmax with no change in list of complaints + 5D-ASC [3]: 1.83 ng/mL
Cmax [4]: 343 ng/mL

CN(C)CCc1c[nH]c2ccccc12 [N,N-dimethyltryptamine (DMT), N,N-dimethyltryptamine]
MADRS CFB reduction over placebo (MDD patients; intravenous, two-weeks postdose, Small Pharma press release): −7.4

CCN(CC)C(=O)[C@@]1(c2ccccc2)C[C@H]1CN [levomilnacipram]
placebo subtracted difference in (LSM) change from baseline MADRS total score (MDD patients): −3.1 to −4.9

N#Cc1ccc2[nH]cc(CCCCN3CCN(c4ccc5oc(C(N)=O)cc5c4)CC3)c2c1 [vilazodone hydrochloride]
placebo subtracted difference in (LSM) change from baseline MADRS total score (MDD patients): −2.5 to −5.1
